Eleven compounds from patent EP0242482B1, “Antiviral purine derivatives and process for their preparation” (BEECHAM GROUP PLC, priority 1985, dated 1987) can be followed below.

Structures are written as SMILES. Converted amounts (≈) assume the structure as drawn. Like-named read-outs stand apart in the source and are kept apart here.

The subject of assay [1] is visna virus (strain K184). The assay can be described thus: CPE inhibition test (established monolayer) for lentiviruses. Particulars: minimum concentration giving complete protection of the cell monolayers. It is filed as cell-based. The procedure: 3 x 10⁴ sheep choroid plexus (SCP) cells were plated into individual wells of a 96 well microtitre plate in 100»l of Eagle's MEM with Hanks salts containing 10% heat inactivated foetal calf serum (FCS). When monolayers had become established (after 1 or 2 days growth) they were washed with 200»l of maintenance medium (Eagle's MEM with Hanks salts containing 0.5% FCS) and infected with 100»l of visna virus (strain K184) in maintenance medium (30 TCID₅₀/ml). Test samples were diluted with maintenance medium in further 96 well microtitre plates over the range 200-0.09»g/ml by 3-fold dilution steps. 100»l of the diluted samples was then transferred directly onto virus-infected monolayers (final concentration range therefore 100-0.045»g/ml) and incubated at 37°C in a humidified, 5% CO₂ incubation until virus-induced CPE was maximal in the untreated virus-infected controls (usually 12-14 days). The plates were fixed with formal saline and stained with crystal violet. Virus-induced CPE was then scored microscopically and the minimum concentration of sample giving complete protection of the cell monolayers (MIC) determined.

Assay [2] relates to herpes simplex virus 1 (HSV-1; strain HFEM). The assay is described as follows: Plaque reduction test for herpes simplex virus 1. Particulars: Human alphaherpesvirus 1, Vero, HFEM strain in Vero cells; each figure is the value obtained in a single test; read-out: IC₅₀ Herpes Simplex Type 1 virus HFEM strain in Vero cells. It is filed as cell-based. The method, then: (§1) Cells (Vero or MRC-5) were grown to confluence in 24 well multi-dishes (well diameter = 1.5cm). The drained cell monolayers were each infected with approximately 50 infectious particles of herpes simplex virus 1 (HSV-1; strain HFEM) or herpes simplex virus 2 (HSV-2; strain MS) in 100»l of phosphate-buffered saline. The virus was adsorbed for 1 hour at room temperature. After adsorption, residual inoculum was removed from each well and replaced with 0.5ml of Eagle's MEM containing 5% newborn calf serum and 0.9% agarose (A37). Once the agarose had set, dilutions of the test compound, which had been prepared in Eagle's MEM (containing 5% newborn calf serum), were added, each well receiving 0.5ml of liquid overlay. The test compound was diluted to give the following series of concentrations: 200, 60, 20, 6....0.06»g/ml; final concentrations in the assay ranged, therefore, between 100»g/ml and 0.03»g/ml. The infected cultures were incubated at 37°C in a humidified atmosphere of 5% CO₂ until plaques were clearly visible (2 or 3 days for Vero cells, usually 1 day for MRC-5 cells).
(§2) Cultures from 1 and 2 were fixed in formal saline, the agarose overlays were carefully washed off, and then the cell monolayers were stained with carbol fuchsin. A stereo microscope was used to count plaques. The IC₅₀ (concentration of drug which inhibits plaque number by 50% relative to the number of plaques observed in virus control monolayers) of the test compound was calculated. In addition, the monolayers were examined for evidence of drug-induced cytotoxicity; the minimum concentration at which cytotoxicity occurs was recorded.

Assay [3] concerns herpes simplex virus 2 (HSV-2; strain MS). The assay is described as follows: Plaque reduction test for herpes simplex virus 2. The note with it: each figure is the value obtained in a single test. The format is cell-based, Herpes Simplex Type 2 virus. The method, then: as §1, §2
A general note: Plaques are areas of infected cells; plaque reduction assays count them against a control.

The test system of assay [4] is herpes simplex virus 1, strain SC16. The assay is described as follows: CPE inhibition test (replicating cells) for herpes simplex virus 1. It is filed as cell-based. The note with it: Human alphaherpesvirus 1, SC16, MRC5, SC16 strain in MRC-5 cells; each figure is the value obtained in a single test; read-out: IC₅₀ Herpes Simplex Type 1 virus SC16 strain in MRC-5 cells. The source says:
MRC-5 cells (in Eagles MEM containing 5% newborn calf serum) were infected in suspension with herpes simplex virus 1, strain SC16 (approximately one infectious particle per 10 cells). One hundred microlitres of the infected cell suspension (containing approximately 2 x 10⁴ cells) were dispensed into each well of a 96 well microtitre plate containing an equal volume of the test drug in medium (Eagles MEM containing 5% newborn calf serum) at concentrations ranging from 200 to 0.09»g/ml (3-fold dilution steps); final concentrations therefore ranged between 100 to 0.045»g/ml. The plates were then incubated at 37°C in a humidified atmosphere of 5% CO₂ for 3 days when the virus-induced cytopathic effect (CPE) in the control wells reached 100%. The plates were fixed in formal saline and stained with carbol fuchsin. […] Plates of uninfected cells were set up in parallel to determined the minimum concentration of test compound which caused cytotoxicity.

Assay [5] deals with varicella zoster virus (VZV; Ellen strain). The assay can be described thus: Plaque reduction test for varicella zoster virus. The format is cell-based. Particulars: Human alphaherpesvirus 3, MRC5, Ellen strain in MRC-5 cells; each figure is the value obtained in a single test; read-out: IC₅₀ Varicella Zoster virus Ellen strain in MRC-5 cells. The method, then: MRC-5 cells were grown to confluence in 24 well multi-dishes (well diameter = 1.5cm). The drained cell monolayers were each infected with approximately 50 infectious particles of varicella zoster virus (VZV; Ellen strain) in 100»l of phosphate-buffered saline. The virus was adsorbed for 1 hour at room temperature. After adsorption, residual inoculum was removed from each well and replaced with 0.5ml of Eagle's MEM containing 5% heat-inactivated foetal calf serum and 0.9% agarose (A37). Once the agarose had set, dilutions of the test compound, which had been prepared in Eagle's MEM (containing 5% heat-inactivated foetal calf serum), were added, each well receiving 0.5ml of liquid overlay. The test compound was diluted to give the following series of cencentrations: 200, 60, 20, 6....0.06»g/ml; final concentrations in the assay ranged, therefore, between 100»g/ml and 0.03»g/ml. The infected cultures were incubated at 37°C in a humidified atmosphere of 5% CO₂ until plaques were clearly visible (5 or 6 days).
as §2

The mark [6] stands for this setting: Human alphaherpesvirus 2, MRC5, MS strain in MRC-5 cells, read-out: IC₅₀ Herpes Simplex Type 2 virus MS strain in MRC-5 cells.
Where [7] appears, read: Human alphaherpesvirus 2, Vero, MS strain in Vero cells, read-out: IC₅₀ Herpes Simplex Type 2 virus MS strain in Vero cells.

With `Nc1nc2c(ncn2OCCCO)c(=O)[nH]1` [Example 1, 9-(3-Hydroxyprop-1-oxy)guanine], the “MIC Visna Virus K184 strain in SCP cells” value in assay [1] is 3.0 »g/ml. Moreover, the figures for the IC50 in assay [2], in assay [3] (setting [6]) and in assay [3] (setting [7]) were 0.4 µg/mL (≈ 1.78 µM), 0.1 µg/mL (≈ 0.444 µM) and 0.3 µg/mL (≈ 1.33 µM), respectively.

Regarding `CC(=O)OCCCOn1cnc2c(=O)[nH]c(N)nc21` [Example 2, 9-(3-Acetoxyprop-1-oxy)guanine], the results for the IC50 in assay [4], in assay [2] and in assay [3] (setting [6]) were 0.4 µg/mL (≈ 1.5 µM), 4.3 µg/mL (≈ 16.1 µM) and 1.1 µg/mL (≈ 4.12 µM), respectively.

In the case of `Nc1nc2c(ncn2OCCCOC(=O)c2ccccc2)c(=O)[nH]1` [Example 3, 9-(3-Benzoyloxyprop-1-oxy)guanine], the IC50 in assay [4] worked out at 1.2 µg/mL (≈ 3.64 µM); in assay [2], 2.8 µg/mL (≈ 8.5 µM); in assay [3] (setting [6]), 2.1 µg/mL (≈ 6.38 µM).

Turning to `CCOc1nc(N)nc2c1ncn2OCCCO` [Example 4, 2-Amino-6-ethoxy-9-(3-hydroxyprop-1-oxy)purine], the results for the IC50 in assay [5], in assay [4] and in assay [3] (setting [6]) were 21 µg/mL (≈ 82.9 µM), 100 µg/mL (≈ 395 µM) and 67 µg/mL (≈ 265 µM), respectively.

`Nc1nc2c(ncn2OCC(CO)CO)c(=O)[nH]1` [Example 5, 9-(3-Hydroxy-2-hydroxymethylprop-1-oxy)guanine]: in assay [1], the “MIC Visna Virus K184 strain in SCP cells” value is given as 0.1 »g/ml. Also, the IC50 came to 2.9 µg/mL (≈ 11.4 µM) in assay [5]; 1.8 µg/mL (≈ 7.05 µM) in assay [4]; 1.5 µg/mL (≈ 5.88 µM) in assay [2]; 1.5 µg/mL (≈ 5.88 µM) in assay [3] (setting [6]); 1.5 µg/mL (≈ 5.88 µM) in assay [3] (setting [7]).

As to `Nc1nc2c(ncn2OCC(O)CO)c(=O)[nH]1` (stereo not shown) [Example 6, 9-(2,3-Dihydroxyprop-1-oxy)guanine], the “MIC Visna Virus K184 strain in SCP cells” value in assay [1] is given as 10 »g/ml. The IC50 in assay [5] turned out to be 2.3 µg/mL (≈ 9.54 µM); in assay [4], 1.9 µg/mL (≈ 7.88 µM); in assay [2] it was 8.6 µg/mL (≈ 35.7 µM); in assay [3] (setting [6]), 0.7 µg/mL (≈ 2.9 µM); in assay [3] (setting [7]), 1.6 µg/mL (≈ 6.63 µM).

In the case of `Nc1ncc2ncn(OCC(O)CO)c2n1` (stereo not shown) [Example 7, 2-Amino-9-(2,3-dihydroxyprop-1-oxy)purine], the IC50 in assay [5] turned out to be 57 µg/mL (≈ 253 µM); in assay [4], 100 µg/mL (≈ 444 µM).

For `Nc1nc2c(ncn2OC(CO)CCO)c(=O)[nH]1` (stereo not shown) [Example 8, 9-(1,4-Dihydroxybut-2-oxy)guanine], the “MIC Visna Virus K184 strain in SCP cells” value in assay [1] was 30 »g/ml. Besides, the IC50 in assay [4] was determined as 11 µg/mL (≈ 43.1 µM).

On to `CCCCCC(=O)OCCCOn1cnc2c(=O)[nH]c(N)nc21` [Example 11, 9-(3-Hexanoyloxyprop-1-oxy)guanine], for which the IC50 in assay [5] turned out to be 0.1 µg/mL (≈ 0.309 µM); in assay [4], 0.1 µg/mL (≈ 0.309 µM); in assay [2], 0.7 µg/mL (≈ 2.16 µM).

Consider `Nc1nc2c(ncn2O[C@@H](CO)CCO)c(=O)[nH]1` [Example 14, (R)-9-(1,4-Dihydroxybut-2-oxy)guanine], for which, in assay [4], the IC50 worked out at 100 µg/mL (≈ 392 µM).

Regarding `Nc1nc2c(ncn2O[C@H](CO)CCO)c(=O)[nH]1` [Example 15, (S)-9-(1,4-Dihydroxybut-2-oxy)guanine], the IC50 in assay [4] amounted to 7.4 µg/mL (≈ 29 µM).
